Laboratory results reported in patent publication US10167262B2, “Herbicidal substituted 3-arylpyrazoles” (FMC CORPORATION, priority 2014, dated 2019).

Assays:
Format in all cases: in vivo
corn (Zea mays) = test: Test C pre-/postemergence greenhouse test, plant response rating 0-100; conditions: Postemergence; for Plant response rating, Corn: 250 g ai/ha, scale 0 to 100
Outline: (§1)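 Two application timings: preemergence onto seeded loam/sand soil and postemergence onto plants at the 1–4 leaf stage (2–18 cm) in peat/vermiculite medium. Formulation: non-phytotoxic solvent with surfactant. Read-out: visual control rating, 0–100, at 13–15 days after treatment.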

[1] = tested on: winter wheat (Triticum aestivum); test: as above; conditions: Postemergence; for Plant response rating, Wheat: 250 g ai/ha, scale 0 to 100
Outline: as §1

[2] = tested on: large (Lg) crabgrass (Digitaria sanguinalis); test: as above; conditions: Postemergence; for Plant response rating, Crabgrass, Large: 250 g ai/ha, scale 0 to 100
Outline: as §1

[3] = tested on: giant foxtail (Setaria faberii); test: as above; conditions: Postemergence; for Plant response rating, Foxtail, Giant: 250 g ai/ha, scale 0 to 100
Outline: as §1

[4] = tested on: blackgrass (Alopecurus myosuroides); test: as above; conditions: Postemergence; for Plant response rating, Blackgrass: 250 g ai/ha, scale 0 to 100
Outline: as §1

[5] = tested on: yellow nutsedge (Cyperus esculentus); test: as above; conditions: Postemergence; for Plant response rating, Nutsedge, Yellow: 250 g ai/ha, scale 0 to 100
Outline: as §1

[6] = tested on: lambsquarters (Chenopodium album); test: as above; conditions: Postemergence; for Plant response rating, Lambsquarters: 250 g ai/ha, scale 0 to 100
Outline: as §1

[7] = tested on: johnsongrass (Sorghum halepense); test: as above; conditions: Postemergence; for Plant response rating, Johnsongrass: 250 g ai/ha, scale 0 to 100
Outline: as §1

[8] = tested on: pigweed (Amaranthus retroflexus); test: as above; conditions: Postemergence; for Plant response rating, Pigweed: 250 g ai/ha, scale 0 to 100
Outline: as §1

soybean (Glycine max) = test: as above; conditions: Postemergence; for Plant response rating, Soybean: 250 g ai/ha, scale 0 to 100
Outline: as §1

wild oat (Avena fatua) = test: Test C postemergence greenhouse test, plant response rating 0-100; conditions: for Plant response rating, Oat, Wild: 250 g ai/ha, scale 0 to 100
Text: (§2) At the same time, plants selected from these crop and weed species and also winter barley (Hordeum vulgare), bermudagrass (Cynodon dactylon), downy bromegrass (Bromus tectorum), canarygrass (Phalaris minor), cocklebur (common cocklebur, Xanthium strumarium), woolly cupgrass (Eriochloa villosa), deadnettle (henbit deadnettle, Lamium amplexicaule), green foxtail (Setaria viridis), goosegrass (Eleusine indica), surinam grass (Brachiaria decumbens), windgrass (Apera spica-venti), chickweed (common chickweed, Stellaria media), kochia (Kochia scoparia), and wild oat (Avena fatua), were planted in pots containing Redi-Earth® planting medium (Scotts Company, 14111 Scottslawn Road, Marysville, Ohio 43041) comprising spaghnum peat moss, vermiculite, wetting agent and starter nutrients and treated with postemergence applications of test chemicals formulated in the same manner. Plants ranged in height from 2 to 18 cm (1- to 4-leaf stage) for postemergence treatments. Treated plants and controls were maintained in a greenhouse for 13 to 15 days, after which time all species were compared to controls and visually evaluated. Plant response ratings, summarized in Table C, are based on a scale of 0 to 100 where 0 is no effect and 100 is complete control. A dash (-) response means no test result.

[9] = tested on: chickweed (common chickweed, Stellaria media); test: as above; conditions: for Plant response rating, Chickweed: 250 g ai/ha, scale 0 to 100
Text: as §2

kochia (Kochia scoparia) = test: as above; conditions: for Plant response rating, Kochia: 250 g ai/ha, scale 0 to 100
Text: as §2

CCn1cc(C(=NN2CCCC2)c2ccccc2)c(-c2cc(Cl)cc(Cl)c2)n1 [Compound 37]
Plant response rating (0 to 100), Corn (corn (Zea mays); 31 g ai/ha): 0 | Plant response rating (0 to 100), Corn (corn (Zea mays); 62 g ai/ha): 0 | Plant response rating (0 to 100), Corn (corn (Zea mays); 125 g ai/ha): 5 | Plant response rating, Corn (corn (Zea mays)): 5 | Plant response rating (0 to 100), Wheat ([1]; 62 g ai/ha): 0 | Plant response rating (0 to 100), Wheat ([1]; 125 g ai/ha): 0 | Plant response rating, Wheat [1]: 0 | Plant response rating (0 to 100), Crabgrass, Large ([2]; 31 g ai/ha): 10 | Plant response rating (0 to 100), Crabgrass, Large ([2]; 62 g ai/ha): 10 | Plant response rating (0 to 100), Crabgrass, Large ([2]; 125 g ai/ha): 10 | Plant response rating, Crabgrass, Large [2]: 10 | Plant response rating (0 to 100), Foxtail, Giant ([3]; 31 g ai/ha): 0 | Plant response rating (0 to 100), Foxtail, Giant ([3]; 62 g ai/ha): 0 | Plant response rating (0 to 100), Foxtail, Giant ([3]; 125 g ai/ha): 25 | Plant response rating, Foxtail, Giant [3]: 25 | Plant response rating (0 to 100), Blackgrass ([4]; 31 g ai/ha): 0 | Plant response rating (0 to 100), Blackgrass ([4]; 62 g ai/ha): 0 | Plant response rating (0 to 100), Blackgrass ([4]; 125 g ai/ha): 0 | Plant response rating, Blackgrass [4]: 0 | Plant response rating (0 to 100), Nutsedge, Yellow ([5]; 62 g ai/ha): 10 | Plant response rating (0 to 100), Nutsedge, Yellow ([5]; 125 g ai/ha): 10 | Plant response rating, Nutsedge, Yellow [5]: 10 | Plant response rating (0 to 100), Lambsquarters ([6]; 62 g ai/ha): 45 | Plant response rating (0 to 100), Lambsquarters ([6]; 125 g ai/ha): 55 | Plant response rating, Lambsquarters [6]: 65 | Plant response rating (0 to 100), Johnsongrass ([7]; 62 g ai/ha): 0 | Plant response rating (0 to 100), Johnsongrass ([7]; 125 g ai/ha): 0 | Plant response rating, Johnsongrass [7]: 0 | Plant response rating (0 to 100), Pigweed ([8]; 62 g ai/ha): 75 | Plant response rating (0 to 100), Pigweed ([8]; 125 g ai/ha): 80 | Plant response rating, Pigweed [8]: 100 | Plant response rating (0 to 100), Soybean (soybean (Glycine max); 62 g ai/ha): 5 | Plant response rating (0 to 100), Soybean (soybean (Glycine max); 125 g ai/ha): 5 | Plant response rating, Soybean (soybean (Glycine max)): 5 | Plant response rating (0 to 100), Oat, Wild (wild oat (Avena fatua); 62 g ai/ha): 0 | Plant response rating (0 to 100), Oat, Wild (wild oat (Avena fatua); 125 g ai/ha): 0 | Plant response rating, Oat, Wild (wild oat (Avena fatua)): 0 | Plant response rating (0 to 100), Chickweed ([9]; 31 g ai/ha): 70 | Plant response rating (0 to 100), Chickweed ([9]; 125 g ai/ha): 70 | Plant response rating, Chickweed [9]: 75 | Plant response rating (0 to 100), Kochia (kochia (Kochia scoparia); 62 g ai/ha): 15 | Plant response rating (0 to 100), Kochia (kochia (Kochia scoparia); 125 g ai/ha): 15 | Plant response rating, Kochia (kochia (Kochia scoparia)): 35

CC(C)n1cc(C(=O)c2ccccc2)c(-c2cc(Cl)cc(Cl)c2)n1 [Compound 44]
Plant response rating (0 to 100), Corn (corn (Zea mays); 31 g ai/ha): 0 | Plant response rating (0 to 100), Corn (corn (Zea mays); 62 g ai/ha): 5 | Plant response rating (0 to 100), Corn (corn (Zea mays); 125 g ai/ha): 5 | Plant response rating, Corn (corn (Zea mays)): 10 | Plant response rating (0 to 100), Wheat ([1]; 62 g ai/ha): 0 | Plant response rating (0 to 100), Wheat ([1]; 125 g ai/ha): 0 | Plant response rating, Wheat [1]: 0 | Plant response rating (0 to 100), Crabgrass, Large ([2]; 31 g ai/ha): 0 | Plant response rating (0 to 100), Crabgrass, Large ([2]; 62 g ai/ha): 5 | Plant response rating (0 to 100), Crabgrass, Large ([2]; 125 g ai/ha): 5 | Plant response rating, Crabgrass, Large [2]: 10 | Plant response rating (0 to 100), Foxtail, Giant ([3]; 31 g ai/ha): 0 | Plant response rating (0 to 100), Foxtail, Giant ([3]; 62 g ai/ha): 0 | Plant response rating (0 to 100), Foxtail, Giant ([3]; 125 g ai/ha): 0 | Plant response rating, Foxtail, Giant [3]: 20 | Plant response rating (0 to 100), Blackgrass ([4]; 31 g ai/ha): 0 | Plant response rating (0 to 100), Blackgrass ([4]; 62 g ai/ha): 0 | Plant response rating (0 to 100), Blackgrass ([4]; 125 g ai/ha): 0 | Plant response rating, Blackgrass [4]: 0 | Plant response rating (0 to 100), Nutsedge, Yellow ([5]; 62 g ai/ha): 0 | Plant response rating (0 to 100), Nutsedge, Yellow ([5]; 125 g ai/ha): 0 | Plant response rating, Nutsedge, Yellow [5]: 0 | Plant response rating (0 to 100), Lambsquarters ([6]; 62 g ai/ha): 45 | Plant response rating (0 to 100), Lambsquarters ([6]; 125 g ai/ha): 45 | Plant response rating, Lambsquarters [6]: 55 | Plant response rating (0 to 100), Johnsongrass ([7]; 62 g ai/ha): 0 | Plant response rating (0 to 100), Johnsongrass ([7]; 125 g ai/ha): 0 | Plant response rating, Johnsongrass [7]: 0 | Plant response rating (0 to 100), Pigweed ([8]; 62 g ai/ha): 60 | Plant response rating (0 to 100), Pigweed ([8]; 125 g ai/ha): 60 | Plant response rating, Pigweed [8]: 100 | Plant response rating (0 to 100), Soybean (soybean (Glycine max); 62 g ai/ha): 5 | Plant response rating (0 to 100), Soybean (soybean (Glycine max); 125 g ai/ha): 5 | Plant response rating, Soybean (soybean (Glycine max)): 5 | Plant response rating (0 to 100), Oat, Wild (wild oat (Avena fatua); 62 g ai/ha): 0 | Plant response rating (0 to 100), Oat, Wild (wild oat (Avena fatua); 125 g ai/ha): 0 | Plant response rating, Oat, Wild (wild oat (Avena fatua)): 0 | Plant response rating (0 to 100), Chickweed ([9]; 31 g ai/ha): 20 | Plant response rating (0 to 100), Chickweed ([9]; 62 g ai/ha): 35 | Plant response rating, Chickweed [9]: 50 | Plant response rating (0 to 100), Kochia (kochia (Kochia scoparia); 62 g ai/ha): 55 | Plant response rating (0 to 100), Kochia (kochia (Kochia scoparia); 125 g ai/ha): 65 | Plant response rating, Kochia (kochia (Kochia scoparia)): 65

ON=C(c1ccccc1)c1c[nH]nc1-c1cc(Cl)cc(Cl)c1 [Compound 50]
Plant response rating (0 to 100), Corn (corn (Zea mays); 31 g ai/ha): 0 | Plant response rating (0 to 100), Corn (corn (Zea mays); 62 g ai/ha): 0 | Plant response rating (0 to 100), Corn (corn (Zea mays); 125 g ai/ha): 0 | Plant response rating, Corn (corn (Zea mays)): 0 | Plant response rating (0 to 100), Wheat ([1]; 62 g ai/ha): 0 | Plant response rating (0 to 100), Wheat ([1]; 125 g ai/ha): 0 | Plant response rating, Wheat [1]: 0 | Plant response rating (0 to 100), Crabgrass, Large ([2]; 31 g ai/ha): 0 | Plant response rating (0 to 100), Crabgrass, Large ([2]; 62 g ai/ha): 0 | Plant response rating (0 to 100), Crabgrass, Large ([2]; 125 g ai/ha): 0 | Plant response rating, Crabgrass, Large [2]: 0 | Plant response rating (0 to 100), Foxtail, Giant ([3]; 31 g ai/ha): 0 | Plant response rating (0 to 100), Foxtail, Giant ([3]; 62 g ai/ha): 0 | Plant response rating (0 to 100), Foxtail, Giant ([3]; 125 g ai/ha): 0 | Plant response rating, Foxtail, Giant [3]: 0 | Plant response rating (0 to 100), Blackgrass ([4]; 31 g ai/ha): 0 | Plant response rating (0 to 100), Blackgrass ([4]; 62 g ai/ha): 0 | Plant response rating (0 to 100), Blackgrass ([4]; 125 g ai/ha): 0 | Plant response rating, Blackgrass [4]: 0 | Plant response rating (0 to 100), Nutsedge, Yellow ([5]; 62 g ai/ha): 0 | Plant response rating (0 to 100), Nutsedge, Yellow ([5]; 125 g ai/ha): 0 | Plant response rating, Nutsedge, Yellow [5]: 0 | Plant response rating (0 to 100), Lambsquarters ([6]; 62 g ai/ha): 80 | Plant response rating (0 to 100), Lambsquarters ([6]; 125 g ai/ha): 100 | Plant response rating, Lambsquarters [6]: 100 | Plant response rating (0 to 100), Johnsongrass ([7]; 62 g ai/ha): 0 | Plant response rating (0 to 100), Johnsongrass ([7]; 125 g ai/ha): 0 | Plant response rating, Johnsongrass [7]: 0 | Plant response rating (0 to 100), Pigweed ([8]; 62 g ai/ha): 75 | Plant response rating (0 to 100), Pigweed ([8]; 125 g ai/ha): 100 | Plant response rating, Pigweed [8]: 100 | Plant response rating (0 to 100), Soybean (soybean (Glycine max); 62 g ai/ha): 0 | Plant response rating (0 to 100), Soybean (soybean (Glycine max); 125 g ai/ha): 0 | Plant response rating, Soybean (soybean (Glycine max)): 0 | Plant response rating (0 to 100), Oat, Wild (wild oat (Avena fatua); 62 g ai/ha): 0 | Plant response rating (0 to 100), Oat, Wild (wild oat (Avena fatua); 125 g ai/ha): 0 | Plant response rating, Oat, Wild (wild oat (Avena fatua)): 0 | Plant response rating (0 to 100), Chickweed ([9]; 31 g ai/ha): 95 | Plant response rating (0 to 100), Chickweed ([9]; 62 g ai/ha): 95 | Plant response rating (0 to 100), Chickweed ([9]; 125 g ai/ha): 100 | Plant response rating, Chickweed [9]: 100 | Plant response rating (0 to 100), Kochia (kochia (Kochia scoparia); 62 g ai/ha): 60 | Plant response rating (0 to 100), Kochia (kochia (Kochia scoparia); 125 g ai/ha): 65 | Plant response rating, Kochia (kochia (Kochia scoparia)): 65
